From patent publication US12656356B2, “Pregabalin immunoassays” (ARK Diagnostics, Inc., priority 2015, dated 2026)
Values joined by “and” are separate entries in the source; they are usually repeats but may differ in a detail not shown here. Equal values may be shown once.

Legend:
anti-pregabalin antibody = test: Specificity of the homogeneous enzyme immunoassay (cross-reactivity); type: binding, rabbit; conditions: compound at 200 μg/mL added to pooled pregabalin-free human urine; Siemens Viva-E System
Description: Antibodies obtained using any of the disclosed techniques are screened or purified not only for their ability to react with pregabalin, but for a low cross-reactivity with potential interfering substances. “Cross-reactivity” may be determined in a quantitative immunoassay by establishing a standard curve using known dilutions of the target analyte, pregabalin. […] The cross-reactivity is the apparent concentration divided by the actual concentration multiplied by 100. […] Furthermore, the cross-reactivity can be determined in the same type of immunoassay in which the antibody will ultimately be used.
An analyzer (instrument) useful to set up the assay is Siemens Viva-E. The Siemens Viva-E® System is an automated biochemistry analyzer used by medical and toxicology laboratories to process biological fluid specimens, such as urine, cerebrospinal fluid, and most commonly, blood. […] The enzyme conjugate activity decreases upon binding to the antibody. The enzyme conjugate, which is not bound to the antibody, catalyzes the oxidation of glucose-6-phosphate. The oxidation of glucose-6-phosphate is coupled with the reduction of NAD^+ to NADH, which can be measured at 340 nm. The change in the absorbance at 340 nm can be measured spectrophotometrically. The pregabalin concentration in a urine specimen can be measured in terms of G6PDH activity. The increase in the rate at 340 nm is due to the formation of NADH and is proportional to the enzyme conjugate activity. An assay curve can be generated using pregabalin spiked into pooled human pregabalin-free urine. The assay rate increases with increasing the concentration of free drug in the sample.
The specificity of the immunoassay was evaluated by adding a compound to pooled pregabalin-free human urine samples fortified with EDTA, and NaN3 preservative and testing the samples and determining the percent cross-reactivity. Separate stock solutions of each compound were prepared in methanol. […] The percentage cross-reactivity was calculated for each compound tested.

antibody #10930 = type: binding, rabbit

Row | SMILES | % Crossreactivity (anti-pregabalin antibody) [%] | Reaction Rate (mA/min) Average of Duplicates (antibody #10930)
1 | N[C@@H](Cc1ccccc1)C(=O)O [L-Phenylalanine] | 0.006 | –
2 | C[C@H](N)C(=O)O [L-Alanine] | 0.004 | –
3 | CC[C@H](C)[C@H](N)C(=O)O [L-Isoleucine] | 0.008 | –
4 | C[C@@H](O)[C@H](N)C(=O)O [L-Threonine] | 0.005 | –
5 | NC(=O)CC[C@H](N)C(=O)O [L-Glutamine] | 0.004 | –
6 | CC(C)C[C@H](N)C(=O)O [L-Leucine, L-leucine] | 0.038 | –
7 | NC(=O)C[C@H](N)C(=O)O [L-Asparagine] | 0.004 | –
8 | CC(C)[C@H](N)C(=O)O [L-Valine] | 0.006 | –
9 | CSCC[C@H](N)C(=O)O [L-Methionine] | 0.031 | –
10 | N=C(N)NCCC[C@H](N)C(=O)O [L-Arginine] | 0.006 | –
11 | N[C@@H](CC(=O)O)C(=O)O [L-Aspartic Acid] | 0.004 | –
12 | NCC(=O)O [L-Glycine] | 0.005 | –
13 | N[C@@H](Cc1c[nH]c2ccccc12)C(=O)O [L-Tryptophan] | 0.006 | –
14 | N[C@@H](CO)C(=O)O [L-Serine] | 0.005 | –
15 | N[C@@H](Cc1c[nH]cn1)C(=O)O [L-Histidine] | 0.007 | –
16 | NCC1(CC(=O)O)CCCCC1 [Gabapentin] | 0.019 | –
17 | N[C@@H](CS)C(=O)O [L-Cysteine] | 0.005 | –
18 | N[C@@H](CCC(=O)O)C(=O)O [L-Glutamic Acid] | 0.006 | –
19 | NCCCC[C@H](N)C(=O)O [L-Lysine] | 0.001 | –
20 | CC(C)C[C@H](CN)CC(=O)O [Pregabalin, (S)-3-(aminomethyl)-5-methylhexanoic acid] | – | 432.5 mA/min and 344.0 mA/min and 381.5 mA/min and 407.0 mA/min
21 | N[C@@H](Cc1ccc(O)cc1)C(=O)O [L-Tyrosine] | 0.004 | –
22 | O=C(O)[C@@H]1CCCN1 [L-Proline] | 0.004 | –
